Reference: US20110105462A1, “MODULATORS OF DOPAMINE NEUROTRANSMISSION” (NSAB, FILIAL AF NEUROSEARCH SWEDEN AB, SVERIGE, priority 2008, published 2011)
Structures can show the parent of a compound that is named as a salt.

Assays:
[1] = test system: DOPAC (3,4-dihydroxyphenylacetic acid) in the rat striatum; test: Increase of DOPAC in the rat striatum after systemic administration (in vivo neurochemistry); conditions: sc, systemic administration (s.c.), curve fitting, 95% range printed in the row below each value, read-out: ED50 DOPAC* (estimated ED50 on increase of DOPAC in the rat striatum)
Excerpt: After the behavioural activity sessions, the rats are decapitated and their brains rapidly taken out and put on an ice-cold petri-dish. The limbic forebrain, the striatum, the frontal cortex and the remaining hemispheral parts of each rat are dissected and frozen. Each brain part is subsequently analyzed with respect to its content of monoamines and their metabolites.
The monoamine transmitter substances (NA (noradrenaline), DA (dopamine), 5-HT (serotonin)) as well as their amine (NM (normethanephrine), 3-MT (3-methoxytyramine)) and acid (DOPAC (3,4-dihydroxyphenylacetic acid), 5-HIAA (5-hydroxyindoleacetic acid), HVA (homovanillic acid)) metabolites are quantified in brain tissue homogenates by HPLC separations and electrochemical detection
The analytical method is based on two chromatographic separations dedicated for amines or acids. Two chromatographic systems share a common auto injector with a 10-port valve and two sample loops for simultaneous injection on the two systems. Both systems are equipped with a reverse phase column (Luna C18(2), dp 3 μm, 50*2 mm i.d., Phenomenex) and electrochemical detection is accomplished at two potentials on glassy carbon electrodes (MF-1000, Bioanalytical Systems, Inc.). The column effluent is passed via a T-connection to the detection cell or to a waste outlet. This is accomplished by two solenoid valves, which block either the waste or detector outlet. By preventing the chromatographic front from reaching the detector, better detection conditions are achieved. The aqueous mobile phase (0.4 ml/min) for the acid system contains citric acid 14 mM, sodium citrate 10 mM, MeOH 15% (v/v) and EDTA 0.1 mM. Detection potentials relative to Ag/AgCl reference are 0.45 and 0.60V. The aqueous ion pairing mobile phase (0.5 ml/min) for the amine system contains citric acid 5 mM, sodium citrate 10 mM, MeOH 9% (v/v), MeCN 10.5% v/v), decane sulfonic acid 0.45 mM, and EDTA 0.1 mM. Detection potentials relative to Ag/AgCl reference are 0.45 and 0.65V.
ED50 values for the increase of DOPAC in striatum are calculated by curve fitting.

[2] = test system: drug-naive rats; test: Locomotor activity in drug-naive rats (in vivo behaviour); set-up: species or system rat; conditions: recorded for 60 minutes immediately after drug administration
Excerpt: Photobeam sensors are spaced 2.5 cm apart.

Compound	melting point	ED50 [1]	Locomotor activity (counts/60 min ± SEM) ([2]; 3.7 μmol/kg)	Locomotor activity (counts/60 min ± SEM) ([2]; 11 μmol/kg)	Locomotor activity (counts/60 min ± SEM) ([2]; 33 μmol/kg)
CCCNCC1COc2ccc(OS(=O)(=O)C(F)(F)F)cc2O1 (centres unmarked) (as salt: fumaric acid salt) [Example 6, 3-[(PROPYLAMINO)METHYL]-2,3-DIHYDRO-1,4-BENZODIOXIN-6-YL TRIFLUOROMETHANESULFONATE]	163 °C	–	–	–	–
CCCNCC1COc2cc(F)c(F)cc2O1 (centres unmarked) (as salt: hydrobromic acid salt) [Example 2, N-[(6,7-DIFLUORO-2,3-DIHYDRO-1,4-BENZODIOXIN-2-YL)METHYL]PROPAN-1-AMINE]	262 °C	–	–	–	–
CCCNC[C@H]1COc2ccc(Br)cc2O1 (as salt: hydrochloric acid salt) [Example 1, N-{[(2S)-7-BROMO-2,3-DIHYDRO-1,4-BENZODIOXIN-2-YL]METHYL}PROPAN-1-AMINE]	194 °C	–	–	–	–
CCCNCC1COc2ccc(F)cc2O1 (centres unmarked) (as salt: hydrochloric acid salt) [Example 3, N-[(7-FLUORO-2,3-DIHYDRO-1,4-BENZODIOXIN-2-YL)METHYL]PROPAN-1-AMINE]	187 °C	–	–	–	–
CCCNCC1COc2ccc(Cl)cc2O1 (centres unmarked) (as salt: hydrochloric acid salt) [Example 4, N-[(7-CHLORO-2,3-DIHYDRO-1,4-BENZODIOXIN-2-YL)METHYL]PROPAN-1-AMINE]	191 °C	–	–	–	–
CCCNCC1COc2ccc(F)c(F)c2O1 (centres unmarked) (as salt: hydrochloric acid salt) [Example 7, N-[(7,8-DIFLUORO-2,3-DIHYDRO-1,4-BENZODIOXIN-2-YL)METHYL]PROPAN-1-AMINE]	184 °C	–	–	–	–
CCCNCC1COc2c(F)cc(F)cc2O1 (centres unmarked) (as salt: hydrochloric acid salt) [Example 8, N-[(5,7-DIFLUORO-2,3-DIHYDRO-1,4-BENZODIOXIN-2-YL)METHYL]PROPAN-1-AMINE]	157 °C	–	–	–	–
Fc1ccc2c(c1)O[C@@H](CN1CCCC1)CO2 (as salt: hydrochloric acid salt) [Example 9, 1-{[(2S)-7-FLUORO-2,3-DIHYDRO-1,4-BENZODIOXIN-2-YL]METHYL}PYRROLIDINE]	215 °C	–	–	–	–
CCCNC[C@H]1COc2ccc(C(F)(F)F)cc2O1 (as salt: hydrochloric acid salt) [Example 58, N-{[(2S)-7-(TRIFLUOROMETHYL)-2,3-DIHYDRO-1,4-BENZODIOXIN-2-YL]METHYL}PROPAN-1-AMINE]	166 °C	–	–	–	–
CCCNC[C@H]1COc2ccc(Br)cc2O1 [Example 1, N-{[(2S)-7-BROMO-2,3-DIHYDRO-1,4-BENZODIOXIN-2-YL]METHYL}PROPAN-1-AMINE]	–	3.4 µmol/kg	6714 ± 601 counts/60 min	5111 ± 620 counts/60 min	1326 ± 131 counts/60 min
CCCNCC1COc2ccc(OS(=O)(=O)C(F)(F)F)cc2O1 (centres unmarked) [Example 6, 3-[(PROPYLAMINO)METHYL]-2,3-DIHYDRO-1,4-BENZODIOXIN-6-YL TRIFLUOROMETHANESULFONATE]	–	12 µmol/kg	9495 ± 2036 counts/60 min	10705 ± 1903 counts/60 min	8064 ± 707 counts/60 min
CCCNCC1COc2ccc(F)c(F)c2O1 (centres unmarked) [Example 7, N-[(7,8-DIFLUORO-2,3-DIHYDRO-1,4-BENZODIOXIN-2-YL)METHYL]PROPAN-1-AMINE]	–	3.1 µmol/kg	7932 ± 2067 counts/60 min	6884 ± 400 counts/60 min	4408 ± 212 counts/60 min
CCCNCC1COc2c(F)cc(F)cc2O1 (centres unmarked) [Example 8, N-[(5,7-DIFLUORO-2,3-DIHYDRO-1,4-BENZODIOXIN-2-YL)METHYL]PROPAN-1-AMINE]	–	14 µmol/kg	9266 ± 2706 counts/60 min	8320 ± 2405 counts/60 min	5457 ± 536 counts/60 min
Fc1ccc2c(c1)O[C@@H](CN1CCCC1)CO2 [Example 9, 1-{[(2S)-7-FLUORO-2,3-DIHYDRO-1,4-BENZODIOXIN-2-YL]METHYL}PYRROLIDINE]	–	–	5419 ± 1414 counts/60 min	2769 ± 647 counts/60 min	1944 ± 482 counts/60 min
CCCNC[C@H]1COc2ccc(C(F)(F)F)cc2O1 [Example 58, N-{[(2S)-7-(TRIFLUOROMETHYL)-2,3-DIHYDRO-1,4-BENZODIOXIN-2-YL]METHYL}PROPAN-1-AMINE]	–	< 3.7 µmol/kg	–	–	–
